This is an account of results in patent US20120129953A1, “TINGLING AND SALIVATING COMPOSITIONS” (FIRMENICH SA, priority 2006, published 2012).

The test is described as follows: Blind test panel evaluation of sugar-free hard-boiled candies by trained evaluators. Format: in vivo. The settings on record: hard-boiled candy. As to the method:
The composition above was then used to prepare sugar-free hard-boiled candies, as follows: Isomalt (100 g) and water (30 g) were mixed and heated to 160° C. in a copper pan. At 160° C., the copper pan was removed from the heat and placed in a warm water bath (40° C.). When the temperature reached 135° C., aspartame, acesulfame-K, the liquid acidulant mixture (1.0%) and flavor were added. The cooked mass was poured at ambient temperature into appropriate Teflon® molds.
The following Table I summarizes the ingredients and respective dosages used in the preparation as described here above of a control hard-boiled candy according to the prior art and containing only citric acid as acidulant and a candy prepared according to the invention.
The Control candy and the Invention Candy were then evaluated by a panel of trained evaluators, on a blind test, and the results of this evaluation are shown in FIG. 1.

In the case of `O=C(O)CC(O)(CC(=O)O)C(=O)O` [Citric acid], the impact and sourness entry is “deliver the expected effect”.
